This is an account of results in PubChem BioAssay (NCI).

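Method: 48-hour compound exposure of cells in 96-well plates, five concentrations, linear interpolation of endpoints. At the GI50, growth is halved. Definition used: TGI = concentration required for complete inhibition of growth.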 A value given as a limit tells only on which side of the number the result lay.

Some test systems named below: A549 NSCLC; RXF 393 renal; A498 renal; OVCAR-8 ovarian; SK-MEL-5 melanoma; MOLT-4 leukemia; HCC-2998 colon; SK-MEL-2 melanoma; UACC-257 melanoma; SNB-19 CNS.
Holding throughout (test): NCI-60 cell line screen, 48 h

As to `COc1ccccc1/C=C\C(=O)c1ccccc1`, the GI50 in the assay with A549 NSCLC was 19.5 µM; with RXF 393 renal, 13 µM; in the assay with A498 renal it was 16.3 µM; in the assay with OVCAR-8 ovarian it was 4.21 µM; with SK-MEL-5 melanoma it was 5.01 µM; in the assay on MOLT-4 leukemia, 2.9 µM. In addition, the GI50 is 7.34 µM in the assay on HCC-2998 colon, 4.36 µM with SK-MEL-2 melanoma, 12.9 µM in the assay with UACC-257 melanoma and 4.38 µM in the assay on SNB-19 CNS. Besides, the TGI in the assay on A549 NSCLC worked out at 41.9 µM; with RXF 393 renal, 27.4 µM; in the assay on A498 renal, 35.7 µM; in the assay on OVCAR-8 ovarian, 15 µM; in the assay on SK-MEL-5 melanoma, 17 µM; in the assay with MOLT-4 leukemia, 10.2 µM. The TGI in the assay on HCC-2998 colon was determined as 19.9 µM; with SK-MEL-2 melanoma it was 14.6 µM; in the assay on UACC-257 melanoma, 26.2 µM; with SNB-19 CNS, 16.7 µM.

Consider `COC(=O)c1cc2c3c(ccc2[nH]1)N(C(=O)c1cc2c4c(ccc2[nH]1)N(C(=O)c1cc2c5c(ccc2[nH]1)N(C(N)=O)CC5)CC4)CC3`, for which the TGI in the assay on A549 NSCLC is more than 100 µM; in the assay on RXF 393 renal, 12.5 µM; in the assay with A498 renal it was 4.4 µM; in the assay on OVCAR-8 ovarian, more than 30.8 µM; with SK-MEL-5 melanoma, 8.68 µM; in the assay with MOLT-4 leukemia it was more than 100 µM. Moreover, the TGI in the assay with HCC-2998 colon is more than 100 µM; in the assay on SK-MEL-2 melanoma it was more than 24.4 µM; with UACC-257 melanoma it was more than 100 µM; in the assay with SNB-19 CNS, 12.6 µM.

Turning to `CC1(C)OC(COCCOCCCCCO)C(COCCOCCCCCO)O1` (centres undefined), the TGI in the assay with A549 NSCLC, in the assay with RXF 393 renal, with A498 renal, in the assay on OVCAR-8 ovarian, in the assay with SK-MEL-5 melanoma and with MOLT-4 leukemia was more than 100 µM in each case. The TGI with HCC-2998 colon, in the assay on SK-MEL-2 melanoma, in the assay with UACC-257 melanoma and in the assay with SNB-19 CNS was more than 100 µM throughout.

As for `O=C(Cc1ccc(/C=C/C(=O)c2ncc[nH]2)cc1)Nc1ccc(C(F)(F)F)cc1`, the GI50 in the assay on A549 NSCLC is 6.37 µM; in the assay on RXF 393 renal, 3.75 µM; in the assay with A498 renal it was 4.73 µM; with OVCAR-8 ovarian it was 7.99 µM; in the assay with SK-MEL-5 melanoma, 5.55 µM; in the assay with MOLT-4 leukemia, 2.29 µM. The GI50 was 3.97 µM in the assay on HCC-2998 colon, 7.09 µM with SK-MEL-2 melanoma, 7.2 µM with UACC-257 melanoma and 2.79 µM in the assay on SNB-19 CNS. Further, the TGI is 27.1 µM in the assay with A549 NSCLC; 8.83 µM in the assay on RXF 393 renal; 10 µM with A498 renal; more than 33.3 µM in the assay on OVCAR-8 ovarian; 10.2 µM in the assay with SK-MEL-5 melanoma; 28.5 µM with MOLT-4 leukemia. Further, the TGI is 8.61 µM in the assay on HCC-2998 colon, 16.7 µM in the assay on SK-MEL-2 melanoma, 16.1 µM in the assay on UACC-257 melanoma and 7.75 µM in the assay on SNB-19 CNS.

`O=C(Nc1cc(S(=O)(=O)c2ccc(Cl)cc2)ccc1Cl)c1cc(I)cc(I)c1O`: the GI50 was 19.3 µM in the assay with A549 NSCLC; 15.1 µM in the assay on RXF 393 renal; 15.3 µM in the assay with A498 renal; 18.6 µM in the assay with OVCAR-8 ovarian; 14.9 µM with SK-MEL-5 melanoma; 19.3 µM in the assay with MOLT-4 leukemia. The GI50 in the assay on HCC-2998 colon was 13.2 µM; in the assay with SK-MEL-2 melanoma, 16.6 µM; with UACC-257 melanoma, 18.4 µM; in the assay on SNB-19 CNS it was 14.9 µM. Besides, the TGI with A549 NSCLC worked out at 38.2 µM; with RXF 393 renal, 35.5 µM; with A498 renal, 31.6 µM; in the assay with OVCAR-8 ovarian it was 41.7 µM; in the assay with SK-MEL-5 melanoma it was 28.3 µM; in the assay on MOLT-4 leukemia, 41 µM. The TGI was 27.2 µM in the assay with HCC-2998 colon, 39.4 µM with SK-MEL-2 melanoma, 42.1 µM in the assay with UACC-257 melanoma and 29.3 µM in the assay with SNB-19 CNS.

Take `O=C(CCN1CCCC1)Nc1ccc2c(Nc3ccccc3)c3ccccc3nc2c1`: the GI50 in the assay on A549 NSCLC is 0.113 µM; in the assay on RXF 393 renal it was 0.981 µM; in the assay on A498 renal it was 0.864 µM; in the assay with OVCAR-8 ovarian, 0.851 µM; in the assay on SK-MEL-5 melanoma it was 1.38 µM; in the assay on MOLT-4 leukemia it was 0.0432 µM. The GI50 with HCC-2998 colon was 0.733 µM; with SK-MEL-2 melanoma it was 1.69 µM; in the assay with UACC-257 melanoma it was 1.75 µM; in the assay on SNB-19 CNS it was 0.432 µM. The TGI with A549 NSCLC was found to be 3.22 µM; with RXF 393 renal, 2.65 µM; in the assay on A498 renal, 2.22 µM; with OVCAR-8 ovarian it was 5.51 µM; with SK-MEL-5 melanoma it was 2.71 µM; with MOLT-4 leukemia, 1.56 µM. The TGI in the assay with HCC-2998 colon came out at 2.29 µM; with SK-MEL-2 melanoma it was 3.56 µM; in the assay on UACC-257 melanoma, 3.83 µM; with SNB-19 CNS, 2.92 µM.

Take `O=[N+]([O-])C1C2C=CC(C2)[C@H]1c1ccc(Cl)cc1Cl` (some centres undefined): the TGI with A549 NSCLC was more than 100 µM; in the assay with RXF 393 renal, 74.1 µM; with A498 renal it was more than 100 µM; with OVCAR-8 ovarian it was more than 100 µM; in the assay on SK-MEL-5 melanoma, 24.7 µM; in the assay on MOLT-4 leukemia, more than 100 µM. For the same compound, the TGI in the assay with HCC-2998 colon is more than 100 µM; in the assay on SK-MEL-2 melanoma it was more than 100 µM; in the assay on UACC-257 melanoma, 99 µM; in the assay on SNB-19 CNS, more than 100 µM.

Turning to `NC(=O)c1cc(I)ccc1NC(=O)COc1ccccc1`, the GI50 was 0.63 µM with A549 NSCLC; 0.453 µM in the assay with RXF 393 renal; 1.27 µM in the assay on A498 renal; 0.876 µM in the assay with OVCAR-8 ovarian; 0.533 µM with SK-MEL-5 melanoma; 1.05 µM in the assay with MOLT-4 leukemia. Further, the GI50 was 2.5 µM in the assay with HCC-2998 colon, 0.566 µM with SK-MEL-2 melanoma, 41.7 µM in the assay with UACC-257 melanoma and 0.699 µM in the assay on SNB-19 CNS. The TGI was more than 100 µM with A549 NSCLC; 4.53 µM in the assay on RXF 393 renal; 7.26 µM with A498 renal; more than 100 µM in the assay with OVCAR-8 ovarian; more than 100 µM in the assay with SK-MEL-5 melanoma; more than 78.4 µM in the assay with MOLT-4 leukemia. For the same compound, the TGI in the assay on HCC-2998 colon was more than 100 µM; in the assay with SK-MEL-2 melanoma, 16.3 µM; with UACC-257 melanoma it was more than 100 µM; in the assay on SNB-19 CNS it was 44.1 µM.

On to `CC1(C)C2CCC13C(=O)C1OC3(C2)C2C(=O)c3c(O)cccc3C(=O)C12` (centres undefined), for which the GI50 in the assay on A549 NSCLC is 1.24 µM; in the assay on RXF 393 renal, 1.56 µM; in the assay on A498 renal, 1.89 µM; in the assay with OVCAR-8 ovarian it was 0.821 µM; in the assay with SK-MEL-5 melanoma, 0.46 µM; in the assay with MOLT-4 leukemia, 0.111 µM. For the same compound, the GI50 with HCC-2998 colon is 1.94 µM; with SK-MEL-2 melanoma, 3.69 µM; in the assay with UACC-257 melanoma, 0.792 µM; with SNB-19 CNS, 10.6 µM. Moreover, the TGI with A549 NSCLC came to 4.57 µM; with RXF 393 renal, 3.5 µM; in the assay with A498 renal it was 3.49 µM; in the assay on OVCAR-8 ovarian, 2.68 µM; with SK-MEL-5 melanoma, 1.64 µM; with HCC-2998 colon, 4.16 µM. Further, the TGI with SK-MEL-2 melanoma was more than 100 µM; in the assay on UACC-257 melanoma it was 2.43 µM; in the assay on SNB-19 CNS, 23.9 µM.
